Test results: patent publication US20260166175A1, “FABRICATION OF CYCLODEXTRIN PARTICLES AND CRYOGELS AND METHODS OF USING AND MAKING THEREOF” (University of South Florida, priority 2022, published 2026)

What was measured:
Human blood = assay: Blood clotting assay; conditions: 1 mg/mL
Method: Hemolysis and blood clotting assays were performed to investigate the blood compatibility of linear α-CD, β-CD, and γ-CD and their particle forms. Human blood was obtained from healthy volunteers and approved by the Clinical Research Ethics Committee of Canakkale Onsekiz Mart University (2011-KAEK-27/2022-2200063689) and placed into tubes containing EDTA. Before the analysis, all solutions were preheated to 37° C.
For the blood clotting assay, 64 μL of 0.2 M CaCl2 aqueous solution was mixed with 810 μL of blood containing EDTA and immediately 270 μL of this blood was covered with 10 mg of linear CD or CD particle. After 10 min, 10 mL of DI water was slowly added into the tubes and centrifuged at 100 g for 1 minute. Then 10 mL of supernatant solution containing non-clotting blood was taken from the tube and diluted with 40 mL of DI water. In the separation tube, 250 μL of the blood containing EDTA was dispersed in 50 mL of DI water as a control. The blood solution was incubated at 37.5° C. in a water bath for 1 h and then, the absorbance value of the supernatant was measured at 542 nm by using UV-Vis spectroscopy. The blood clotting index of the linear CD or CD particles was evaluated from the following equation.
Where Amaterial is the absorbance value of the blood solution interacted with the CD-based materials and Acontol is the absorbance value of the blood solution without the CD-based materials as a control. All assays were carried out in triplicate and the results are given with standard deviations.

L929 fibroblasts = assay: Cytotoxicity (MTT cell viability) on L929 fibroblasts; format: cell-based; conditions: 1.0 mg/mL, 24 h incubation
Method: For the biocompatibility analysis, L929 fibroblasts were cultured in an air-humidified incubator (5% CO2 atmosphere) in DMEM supplemented with 10% fetal bovine serum (FBS) at up to 70% cell confluency. The cytotoxicity analysis of CD-based materials was performed by MTT assay which determines the metabolic activity of living cells.
The L929 fibroblast cell suspension was adjusted to a density of 5×10^5 cells mL^−1 and gently homogenized. Then, 100 µL of this cell suspension was seeded onto wells on a 96-well plate. The well-plate was incubated at 37° C. under 5% CO2 in an air-humidified incubator for 24 h. After adherence of the fibroblasts, the culture medium was removed from the wells and 100 μL of CD-based particle suspension in culture medium DMEM at different concentrations between 50 and 1000 μg/mL was added to the cells. The plate was incubated at 37° C. under 5% CO2 in an air-humidified incubator for 24 h more. At the end of the incubation, the medium was removed from the wells, the cells were washed with phosphate-buffered saline solution (PBS) two times. After this step, 100 μL of MTT (Tetrazolium dye) at 0.5 mg/mL concentration was added to each well. The plate was incubated at room temperature in the dark for 4 h. Then, MTT solution was removed from the wells and 200 μL of DMSO was placed into the wells to dissolve the blue formazan crystals. Finally, the absorbance values were measured at 590 nm with a plate reader (Thermo Scientific™ Multiskan™). The absorbance value of control group was accepted as 100% viability and the decrease in cell viability % was estimated based on the absorbance values of the wells treated with CD-based materials by the following equation, Cell viability
Where Amaterial is the absorbance value of the cells interacting with CD-based materials and Acontrol is the absorbance value of the untreated cells as control. All assays were carried out in triplicate and the results are given with standard deviations.

[1] = Bisphenol A or curcumin loading into p(CD) particles (adsorption); format: physicochemical; conditions: for absorbed BPA: guest BPA; for absorbed CUR: guest CUR
Method: Then, BPA-loaded CD-based particles were washed with ethanol-water (1:1) mixture one time by centrifugation at 10 000 rpm for 10 min. The BPA loaded CD-based particles were dried by freeze dryer for 48 h. Similarly, curcumin (CUR) was loaded into p(α-CD), p(β-CD), and p(γ-CD) particles by using the same procedure as described above. […] The CUR-loaded p(CD) materials were dried by freeze dryer for 48 h. The absorbance value of the BPA/CUR solutions before and after the loading processes were measured by using UV-Vis spectroscopy (SP-UV300SRB, Spectrum, China) at 275 nm and 425 nm for BPA and CUR, respectively against the previously constructed corresponding calibration curves for BPA and CUR prepared in ethanol-water mixtures. The ethanol-water solution was prepared at 1:7 and 3:2 volume ratios for BPA and CUR, respectively.

| blood clotting index (Human blood) | absorbed BPA [1] | absorbed CUR [1] | Structure (SMILES) | cell viability (L929 fibroblasts) |
| --- | --- | --- | --- | --- |
| 98.4±0.7% | 0.222 mmol/mmol | 0.416 mmol/mmol | OCC1OC2OC3C(CO)OC(OC4C(CO)OC(OC5C(CO)OC(OC6C(CO)OC(OC7C(CO)OC(OC8C(CO)OC(OC9C(CO)OC(OC1C(O)C2O)C(O)C9O)C(O)C8O)C(O)C7O)C(O)C6O)C(O)C5O)C(O)C4O)C(O)C3O (stereo not drawn) [γ-CD, γ-cyclodextrin] | 95±14% |
| 93.6±2.2% | 0.158 mmol/mmol | 0.482 mmol/mmol | OCC1OC2OC3C(CO)OC(OC4C(CO)OC(OC5C(CO)OC(OC6C(CO)OC(OC7C(CO)OC(OC1C(O)C2O)C(O)C7O)C(O)C6O)C(O)C5O)C(O)C4O)C(O)C3O (stereo not drawn) [α-CD, α-cyclodextrin] | 90±7% |
| 92.3±2.3% | 0.279 mmol/mmol | 0.398 mmol/mmol | OCC1OC2OC3C(CO)OC(OC4C(CO)OC(OC5C(CO)OC(OC6C(CO)OC(OC7C(CO)OC(OC8C(CO)OC(OC1C(O)C2O)C(O)C8O)C(O)C7O)C(O)C6O)C(O)C5O)C(O)C4O)C(O)C3O (stereo not drawn) [β-CD, β-cyclodextrin] | 89±14% |
